Patent publication US20240156796A1, “PHARMACEUTICAL COMPOSITION FOR TREATMENT OR PREVENTION OF STRESS-RELATED DISORDERS” (TOKYO UNIVERSITY OF SCIENCE FOUNDATION, priority 2021, published 2024)

Columns and labels:
μ-opioid receptor = target: T1, μ-opioid receptor (Homo sapiens, UniProt P35372); test: Opioid receptor function test (antagonist activity) against 30 nM DAMGO; type: cell-based; conditions: antagonist activity vs 30 nM DAMGO
T1 construct: host or cells: CHO cells
Method: (§1) Method: Using a Lance Ultra cAMP kit (manufactured by PerkinElmer, Inc.), the investigation was conducted in accordance with the prescribed method. In the evaluations of agonist activity, CHO cells expressing each of the human opioid receptors (δ, μ and κ: accession numbers and catalog numbers listed below) and each test compound were reacted for 30 minutes in an assay buffer (1×HBSS, 1 M HEPES, pH 7.4, 250 mM IBMX (isobutylmethylxanthine), 7.5% BSA) in the presence of 10 μM forskolin. Subsequently, the cAMP detection reagent included in the kit was added, and after 1 hour, a time-resolved fluorescence measurement was performed using an EnVision plate reader (manufactured by PerkinElmer, Inc.). […] The Emax value was calculated as the ratio of the maximum response of the test compound relative to a value of 100% for the maximum response of each control drug.
(§2) Evaluations of antagonist activity relative to the μ- and κ-opioid receptors were conducted using the same method as (1) above. A fixed concentration of each control drug (μ: 30 nM DAMGO, κ: 100 nM U-69593), the test compound and CHO cells expressing each of the human opioid receptors were reacted for 30 minutes in an assay buffer in the presence of 10 μM forskolin. The test compounds were evaluated in a concentration range from 10^−12 to 10^−5 M, and subsequent operations were conducted in the same manner as the agonist activity evaluations. A dose-response curve was determined for each test compound using a value of 100% for the response of each control drug in the absence of the test compound, and the concentration that inhibited 50% of the control drug response (namely, the IC50 value) was calculated.

κ-opioid receptor [1] = target: T2, κ-opioid receptor (Homo sapiens, UniProt P41145); test: Opioid receptor function test (antagonist activity) against 100 nM U-69593; type: cell-based; conditions: antagonist activity vs 100 nM U-69593
T2 construct: host or cells: CHO cells
T2 sequence (P41145 whole entry): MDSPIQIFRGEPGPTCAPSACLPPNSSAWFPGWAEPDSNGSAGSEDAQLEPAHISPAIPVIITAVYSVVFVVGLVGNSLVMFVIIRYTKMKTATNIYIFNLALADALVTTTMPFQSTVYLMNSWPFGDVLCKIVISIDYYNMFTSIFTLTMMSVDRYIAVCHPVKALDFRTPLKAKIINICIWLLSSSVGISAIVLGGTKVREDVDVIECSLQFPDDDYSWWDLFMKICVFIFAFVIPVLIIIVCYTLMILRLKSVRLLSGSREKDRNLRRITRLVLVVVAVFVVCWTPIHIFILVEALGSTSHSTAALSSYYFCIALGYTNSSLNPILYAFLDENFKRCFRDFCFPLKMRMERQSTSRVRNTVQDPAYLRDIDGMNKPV
Method: as §1, §2

mouse [2] = test: Mouse contextual fear conditioning test (effect on extinction learning of fear memories); type: in vivo; conditions: 5, 10, 20 mg/kg p.o. two hours before second day test; second and third days; test time 6 minutes; vs solvent group (FIG. 1)
Method: The effect of the compound of Example 7 on extinction learning of fear memories was investigated in a mouse contextual fear conditioning test. The test was conducted in accordance with the method described in Non-Patent Document 4. Administration of the compound of Example 7 (5, 10, 20 mg/kg p.o.) or a solvent was conducted two hours prior to placing the mouse in the experimental chamber on the second day.

mouse [3] = test: Mouse contextual fear conditioning test (effect on reconsolidation of fear memories), p.o. before second day test; type: in vivo; conditions: 20 mg/kg p.o. two hours before second day test; second and third days; test time 2 minutes; vs solvent group (FIG. 2)
Method: <Mouse Contextual Fear Conditioning Test (Effect on Reconsolidation of Fear Memories)> Using the same contextual fear conditioning test as Example 41, the effect on the reconsolidation of fear memories was investigated. The test was conducted in accordance with the method described in Non-Patent Document 4. Administration of the compound of Example 7 (20 mg/kg p.o.) or a solvent was conducted two hours prior to placing the mouse in the experimental chamber on the second day. In this test, the test time on the second and third days was set to 2 minutes.

mouse [4] = test: Mouse contextual fear conditioning test (effect on reconsolidation of fear memories), s.c. immediately after second day test; type: in vivo; conditions: 1 mg/kg, 3 mg/kg s.c. immediately after second day test; third day; vs solvent group (FIG. 3)
κ-opioid receptor [5] = target: T2, κ-opioid receptor; test: Opioid receptor function test (agonist activity), Lance Ultra cAMP kit, CHO cells expressing human κ-opioid receptor; type: cell-based; conditions: maximum response not reached, response rate at maximum concentration (10 μM), relative to U-69593, read-out: κ-receptor Emax (*response rate at the maximum concentration, reference value)
Method: The functional activity of the compounds provided by the present invention relative to μ-, δ- and κ-opioid receptors was investigated.
as §1
SNC80: (+)-4-[(aR)-α-((2S,5R)-4-allyl-2,5-dimethyl-1-piperazinyl)-3-methoxybenzyl]-N,N-diethylbenzamide DAMGO: [D-Ala^2,N-MePhe^4,Gly-ol]enkephalin U-69593: (+)-(5α,7α,8β)-N-methyl-N-[7-(1-pyrrolidinyl)-1-oxaspiro[4.5]dec-8-yl]benzeneacetamide

[6] = animal model, Non-Patent Documents 4 and 5; cited from earlier work

T1 sequence (P35372 whole entry): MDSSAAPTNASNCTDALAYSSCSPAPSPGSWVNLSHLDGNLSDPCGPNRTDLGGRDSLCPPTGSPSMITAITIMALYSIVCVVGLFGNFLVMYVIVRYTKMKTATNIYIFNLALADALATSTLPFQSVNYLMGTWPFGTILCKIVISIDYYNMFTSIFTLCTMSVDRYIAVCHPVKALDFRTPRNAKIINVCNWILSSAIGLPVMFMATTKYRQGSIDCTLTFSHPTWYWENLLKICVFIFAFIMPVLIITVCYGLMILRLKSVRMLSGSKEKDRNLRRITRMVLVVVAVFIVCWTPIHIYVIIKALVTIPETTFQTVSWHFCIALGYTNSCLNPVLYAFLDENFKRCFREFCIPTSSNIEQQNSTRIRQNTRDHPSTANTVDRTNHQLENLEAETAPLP

Row | Structure (SMILES) | IC50 (μ-opioid receptor) | IC50 (κ-opioid receptor [1]) | also measured
1 | O=C(c1cccc(=O)[nH]1)N1C[C@H]2C[C@@]34CC[C@@H]1[C@@H]2[C@@]31CCN(CC2CC2)[C@@H]4Cc2ccc(O)cc21 [Example 7, 6-((1S,3aR,5aS,6R,11bR,11cS)-14-(cyclopropylmethyl)-10-hydroxy-2,3,3a,4,5,6,7,11c-octahydro-1H-6,11b-(epiminoethano)-1,5a-methanonaphtho[1,2-e]indole-3-carbonyl)pyridin-2(1H)-one] | 1.3 nM | 4.6 nM | fear response (freezing behavior, % of test time) (mouse [2]): significant reduction in fear response; fear response (freezing behavior) (mouse [3]): significant reduction in fear response; fear response (freezing behavior) (mouse [4]): significant reduction in fear response
2 | O=C(c1cccc[n+]1[O-])N1C[C@H]2C[C@@]34CC[C@@H]1[C@@H]2[C@@]31CCN(CC2CC2)[C@@H]4Cc2ccc(O)cc21 [Example 1, 2-((1S,3aR,5aS,6R,11bR,11cS)-14-(cyclopropylmethyl)-10-hydroxy-2,3,3a,4,5,6,7,11c-octahydro-1H-6,11b-(epiminoethano)-1,5a-methanonaphtho[1,2-e]indole-3-carbonyl)pyridine 1-oxide] | 4.1 nM | 3.3 nM | –
3 | Cn1cc(C(=O)N2C[C@H]3C[C@@]45CC[C@@H]2[C@@H]3[C@@]42CCN(CC3CC3)[C@@H]5Cc3ccc(O)cc32)ccc1=O [Example 9, 5-((1S,3aR,5aS,6R,11bR,11cS)-14-(cyclopropylmethyl)-10-hydroxy-2,3,3a,4,5,6,7,11c-octahydro-1H-6,11b-(epiminoethano)-1,5a-methanonaphtho[1,2-e]indole-3-carbonyl)-1-methylpyridin-2(1H)-one] | 2.4 nM | 3.3 nM | –
4 | O=C(c1cc(=O)cc[nH]1)N1C[C@H]2C[C@@]34CC[C@@H]1[C@@H]2[C@@]31CCN(CC2CC2)[C@@H]4Cc2ccc(O)cc21 [Example 14, 2-((1S,3aR,5aS,6R,11bR,11cS)-14-(cyclopropylmethyl)-10-hydroxy-2,3,3a,4,5,6,7,11c-octahydro-1H-6,11b-(epiminoethano)-1,5a-methanonaphtho[1,2-e]indole-3-carbonyl)pyridin-4(1H)-one] | – | – | Emax at 10 µM (κ-opioid receptor [5]): 5.7%
5 | CCn1cc(C(=O)N2C[C@H]3C[C@@]45CC[C@@H]2[C@@H]3[C@@]42CCN(CC3CC3)[C@@H]5Cc3ccc(O)cc32)ccc1=O [Example 28, 5-((1S,3aR,5aS,6R,11bR,11cS)-14-(cyclopropylmethyl)-10-hydroxy-2,3,3a,4,5,6,7,11c-octahydro-1H-6,11b-(epiminoethano)-1,5a-methanonaphtho[1,2-e]indole-3-carbonyl)-1-ethylpyridin-2(1H)-one] | 2.1 nM | 4 nM | –
6 | O=C(c1ccc[nH]c1=O)N1C[C@H]2C[C@@]34CC[C@@H]1[C@@H]2[C@@]31CCN(CC2CC2)[C@@H]4Cc2ccc(O)cc21 [Example 3, 3-((1S,3aR,5aS,6R,11bR,11cS)-14-(cyclopropylmethyl)-10-hydroxy-2,3,3a,4,5,6,7,11c-octahydro-1H-6,11b-(epiminoethano)-1,5a-methanonaphtho[1,2-e]indole-3-carbonyl)pyridin-2(1H)-one] | 4.6 nM | 11.1 nM | –
7 | C=CCN1C[C@H](C)N([C@H](c2ccc(C(=O)N(CC)CC)cc2)c2cccc(OC)c2)C[C@H]1C [SNC80, (+)-4-[(aR)-α-((2S,5R)-4-allyl-2,5-dimethyl-1-piperazinyl)-3-methoxybenzyl]-N,N-diethylbenzamide] | – | – | anxiolytic effect through the extinction of anxiety or fear memories [6]: exhibited an anxiolytic effect
8 | Cn1c(C(=O)N2C[C@H]3C[C@@]45CC[C@@H]2[C@@H]3[C@@]42CCN(CC3CC3)[C@@H]5Cc3ccc(O)cc32)cccc1=O [Example 10, 6-((1S,3aR,5aS,6R,11bR,11cS)-14-(cyclopropylmethyl)-10-hydroxy-2,3,3a,4,5,6,7,11c-octahydro-1H-6,11b-(epiminoethano)-1,5a-methanonaphtho[1,2-e]indole-3-carbonyl)-1-methylpyridin-2(1H)-one] | 5.7 nM | 3.4 nM | –
